We go through 13 molecules from PubChem BioAssay (NCI).

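Assay format: 96-well plates, 48-hour exposure. GI50 marks 50% less growth. TGI denotes the concentration required for complete inhibition of growth.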

Among the test systems are SK-OV-3 ovarian; HOP-92 NSCLC; SF-539 CNS; MDA-MB-231 breast; RXF 393 renal; HCT-15 colon; EKVX NSCLC; NCI-H23 lung; SK-MEL-5 melanoma; HT29 colon.
Common to all, as to assay: growth of human tumour cells (NCI), 48 h

Turning to `CN(C)CC1CCCC1=O` (centres undefined), the TGI is 28.6 µM in the experiment on SK-OV-3 ovarian; 2.97 µM in the experiment on HOP-92 NSCLC; 14.8 µM in the experiment with SF-539 CNS; 7.06 µM with MDA-MB-231 breast; 6.63 µM in the experiment with RXF 393 renal; 2.56 µM in the experiment on HCT-15 colon. Moreover, the TGI in the experiment on EKVX NSCLC was 3.59 µM; in the experiment on NCI-H23 lung, 11.7 µM; in the experiment with SK-MEL-5 melanoma, 6.71 µM; in the experiment on HT29 colon it was 2.06 µM.
As for `CCn1c2ccccc2c2cc(/C=C(/C#N)C(N)=O)ccc21`, the GI50 in the experiment on SK-OV-3 ovarian is 21.8 µM; in the experiment with HOP-92 NSCLC it was 16.9 µM; in the experiment on MDA-MB-231 breast, 21 µM; in the experiment with RXF 393 renal it was 2.57 µM; with HCT-15 colon it was 14.8 µM; in the experiment with EKVX NSCLC it was 3.57 µM. The GI50 in the experiment with NCI-H23 lung is 16.3 µM; in the experiment with SK-MEL-5 melanoma, 8.5 µM; with HT29 colon it was 5.18 µM. The TGI with SK-OV-3 ovarian was over 78.1 µM; in the experiment with HOP-92 NSCLC, over 91.4 µM; with SF-539 CNS, 6.61 µM; with MDA-MB-231 breast, over 100 µM; with RXF 393 renal, 19.3 µM; with HCT-15 colon, over 100 µM. Further, the TGI in the experiment with EKVX NSCLC was over 48.7 µM; with NCI-H23 lung it was over 100 µM; with SK-MEL-5 melanoma, 54.2 µM; in the experiment on HT29 colon, over 100 µM.
On to `COc1ccc2cc(-c3c(-c4ccncc4)nc(-c4ccc(S(C)=O)cc4)n3C)ccc2c1` (centres undefined), for which the GI50 in the experiment on SK-OV-3 ovarian was 10.7 µM; in the experiment with HOP-92 NSCLC, 5.67 µM; with SF-539 CNS, over 25 µM; with MDA-MB-231 breast it was over 25 µM; in the experiment on RXF 393 renal, 2.78 µM; in the experiment with HCT-15 colon, 9.57 µM. The GI50 is 15.6 µM with EKVX NSCLC, over 25 µM with NCI-H23 lung, 5.58 µM in the experiment with SK-MEL-5 melanoma and 9.06 µM in the experiment on HT29 colon. The TGI in the experiment on SK-OV-3 ovarian, in the experiment on HOP-92 NSCLC, in the experiment on SF-539 CNS, with MDA-MB-231 breast, in the experiment with RXF 393 renal and with HCT-15 colon was over 25 µM throughout. Further, the TGI in the experiment on EKVX NSCLC was over 25 µM; in the experiment on NCI-H23 lung it was over 25 µM; in the experiment on SK-MEL-5 melanoma, over 21.2 µM; with HT29 colon it was over 25 µM.
For the molecule `O=c1[nH]cnc2c(C3NC(CO)C(O)C3O)c[nH]c12` (centres undefined), the GI50 in the experiment with SK-OV-3 ovarian, with HOP-92 NSCLC, in the experiment with SF-539 CNS, with MDA-MB-231 breast, with RXF 393 renal and in the experiment with HCT-15 colon was over 100 µM in each case. The GI50 in the experiment with EKVX NSCLC, in the experiment on NCI-H23 lung, with SK-MEL-5 melanoma and in the experiment on HT29 colon was over 100 µM each time. Moreover, the TGI with SK-OV-3 ovarian, in the experiment on HOP-92 NSCLC, in the experiment with SF-539 CNS, in the experiment with MDA-MB-231 breast, in the experiment on RXF 393 renal and in the experiment on HCT-15 colon was over 100 µM each time. The TGI in the experiment on EKVX NSCLC, in the experiment with NCI-H23 lung, in the experiment on SK-MEL-5 melanoma and in the experiment with HT29 colon was over 100 µM in each case.
`CN1CCC(n2cnc(-c3ccc(F)cc3)c2-c2ccnc(N)n2)CC1`: the GI50 with SK-OV-3 ovarian is 10.8 µM; in the experiment on HOP-92 NSCLC it was 3.99 µM; in the experiment with SF-539 CNS it was 14.2 µM; with MDA-MB-231 breast it was 13.5 µM; in the experiment on RXF 393 renal, 9.74 µM; with HCT-15 colon, 10.5 µM. For the same molecule, the GI50 is 10.3 µM with EKVX NSCLC, 10.6 µM in the experiment on NCI-H23 lung, 11.6 µM with SK-MEL-5 melanoma and 6.2 µM in the experiment with HT29 colon. Also, the TGI with SK-OV-3 ovarian was over 25 µM; in the experiment with HOP-92 NSCLC, 24 µM; with SF-539 CNS, over 25 µM; in the experiment on MDA-MB-231 breast it was over 25 µM; with RXF 393 renal it was over 25 µM; in the experiment with HCT-15 colon, over 25 µM. Also, the TGI with EKVX NSCLC, with NCI-H23 lung, in the experiment on SK-MEL-5 melanoma and in the experiment on HT29 colon was over 25 µM each time.
As to `C#CCOc1cccc(Nc2ncnc3c(NC(=O)CCl)cccc23)c1`, the GI50 is 51.2 µM in the experiment with SK-OV-3 ovarian; 17 µM with HOP-92 NSCLC; 16.6 µM in the experiment with SF-539 CNS; 22.9 µM in the experiment with MDA-MB-231 breast; 27.3 µM in the experiment with RXF 393 renal; 20.2 µM with HCT-15 colon. Besides, the GI50 was 20 µM in the experiment with EKVX NSCLC, 18.3 µM in the experiment on NCI-H23 lung, 14 µM in the experiment with SK-MEL-5 melanoma and 18.6 µM with HT29 colon. Moreover, the TGI is over 100 µM with SK-OV-3 ovarian; 33.8 µM in the experiment with HOP-92 NSCLC; 31.3 µM with SF-539 CNS; 61 µM in the experiment with MDA-MB-231 breast; 68.4 µM in the experiment with RXF 393 renal; 72.5 µM with HCT-15 colon. Moreover, the TGI was 54.1 µM in the experiment on EKVX NSCLC, 47.9 µM in the experiment with NCI-H23 lung, 27.2 µM in the experiment on SK-MEL-5 melanoma and 34.4 µM in the experiment on HT29 colon.
`O=C(O)COc1c(Cl)cc(Cl)c2cccnc12`: the TGI with SK-OV-3 ovarian, in the experiment with HOP-92 NSCLC, with SF-539 CNS, with MDA-MB-231 breast, in the experiment on RXF 393 renal and in the experiment on HCT-15 colon was over 100 µM each time. The TGI in the experiment with EKVX NSCLC, in the experiment with NCI-H23 lung, with SK-MEL-5 melanoma and in the experiment with HT29 colon was over 100 µM throughout.
As for `COc1ccc(OC)c(C2SCC(=O)N2NC(=O)C(O)c2ccccc2)c1` (centres undefined), the GI50 in the experiment on SK-OV-3 ovarian, in the experiment on HOP-92 NSCLC, in the experiment on SF-539 CNS, in the experiment on MDA-MB-231 breast, in the experiment with RXF 393 renal and in the experiment on HCT-15 colon was over 100 µM throughout. The GI50 in the experiment on EKVX NSCLC, in the experiment on NCI-H23 lung, in the experiment with SK-MEL-5 melanoma and in the experiment with HT29 colon was over 100 µM in each case. The TGI with SK-OV-3 ovarian, in the experiment with HOP-92 NSCLC, with SF-539 CNS, with MDA-MB-231 breast, with RXF 393 renal and in the experiment on HCT-15 colon was over 100 µM in each case. In addition, the TGI with EKVX NSCLC, in the experiment with NCI-H23 lung, in the experiment with SK-MEL-5 melanoma and in the experiment on HT29 colon was over 100 µM each time.
On to `CCN1C(=O)N(CC)C2C1NN=c1s/c(=C3\C(=O)N(CCc4ccccc4)c4ccccc43)c(=O)n12` (centres undefined), for which the GI50 with SK-OV-3 ovarian is 0.542 µM; in the experiment on HOP-92 NSCLC, 2.55 µM; with SF-539 CNS, 0.228 µM; in the experiment on MDA-MB-231 breast it was 0.844 µM; in the experiment on RXF 393 renal, 0.262 µM; in the experiment on HCT-15 colon, 0.351 µM. In addition, the GI50 in the experiment on EKVX NSCLC is 0.641 µM; in the experiment with NCI-H23 lung, 0.794 µM; in the experiment with SK-MEL-5 melanoma, 0.305 µM; with HT29 colon, 0.351 µM. Moreover, the TGI with SK-OV-3 ovarian is 5.77 µM; in the experiment on HOP-92 NSCLC, 15.6 µM; with SF-539 CNS, 0.643 µM; in the experiment with MDA-MB-231 breast, 7.51 µM; in the experiment on RXF 393 renal, 1.01 µM; in the experiment with HCT-15 colon, over 34.2 µM. The TGI is over 100 µM in the experiment on EKVX NSCLC, 14.3 µM with NCI-H23 lung, 1.23 µM with SK-MEL-5 melanoma and 1.58 µM in the experiment on HT29 colon.
Turning to `Cn1cncc1CC1COC(=O)C1C(O)c1ccccc1` (centres undefined), the TGI in the experiment with SK-OV-3 ovarian, with HOP-92 NSCLC, in the experiment with SF-539 CNS, in the experiment with MDA-MB-231 breast, in the experiment with RXF 393 renal and in the experiment on HCT-15 colon was over 100 µM throughout. The TGI in the experiment on EKVX NSCLC, in the experiment with NCI-H23 lung, with SK-MEL-5 melanoma and in the experiment with HT29 colon was over 100 µM in each case.
Take `CC(=O)c1c(C(F)(F)F)n([O-])c2ccc(C)cc2[n+]1=O`: the GI50 is 5.02 µM in the experiment with SK-OV-3 ovarian; 1.11 µM in the experiment with HOP-92 NSCLC; 1.78 µM with SF-539 CNS; 1.82 µM in the experiment on MDA-MB-231 breast; 10.2 µM in the experiment with RXF 393 renal; 2.45 µM with HCT-15 colon. Further, the GI50 is 1.19 µM in the experiment with EKVX NSCLC, 2.08 µM in the experiment with NCI-H23 lung, 1.07 µM in the experiment with SK-MEL-5 melanoma and 4.96 µM with HT29 colon. Moreover, the TGI is over 100 µM in the experiment with SK-OV-3 ovarian; 4.81 µM with HOP-92 NSCLC; 5.1 µM with SF-539 CNS; 5.52 µM with MDA-MB-231 breast; over 100 µM in the experiment on RXF 393 renal; 39.4 µM in the experiment on HCT-15 colon. Also, the TGI with EKVX NSCLC was 4.59 µM; in the experiment on NCI-H23 lung, 11.2 µM; in the experiment on SK-MEL-5 melanoma it was 3 µM; in the experiment with HT29 colon, over 100 µM.
Take `CSC(=S)N/N=C(\C)c1cccc(C)n1`: the TGI in the experiment with SK-OV-3 ovarian amounted to 10.7 µM; with HOP-92 NSCLC, 13.9 µM; with SF-539 CNS, 7.34 µM; with MDA-MB-231 breast, 36.4 µM; with RXF 393 renal it was 13.8 µM; in the experiment on HCT-15 colon it was 48.1 µM. The TGI in the experiment on EKVX NSCLC was over 43.3 µM; in the experiment on NCI-H23 lung, 13.9 µM; in the experiment with SK-MEL-5 melanoma, 8.56 µM; in the experiment on HT29 colon it was over 47.3 µM.
As for `Cn1cc(-c2nonc2-c2cn(C)c3ccccc23)c2ccccc21`, the GI50 was 1.28 µM in the experiment on SK-OV-3 ovarian; 4.16 µM with HOP-92 NSCLC; 0.559 µM in the experiment with SF-539 CNS; 1.35 µM in the experiment on MDA-MB-231 breast; 0.827 µM in the experiment with RXF 393 renal; 0.537 µM in the experiment on HCT-15 colon. Further, the GI50 with EKVX NSCLC was 1.7 µM; with NCI-H23 lung it was 1.98 µM; in the experiment with SK-MEL-5 melanoma, 1.34 µM; in the experiment on HT29 colon, 0.519 µM. Further, the TGI was over 100 µM with SK-OV-3 ovarian; over 100 µM with HOP-92 NSCLC; 2.19 µM in the experiment with SF-539 CNS; over 100 µM with MDA-MB-231 breast; 21.9 µM in the experiment on RXF 393 renal; over 100 µM in the experiment with HCT-15 colon. Further, the TGI in the experiment with EKVX NSCLC, with NCI-H23 lung, in the experiment with SK-MEL-5 melanoma and with HT29 colon was over 100 µM throughout.
